Reference: BindingDB's records for doi:10.1016/j.bmcl.2004.08.063 (Abbott Laboratories, 2004)

Tests used:
[1] = target: T1, Tyrosine-protein phosphatase non-receptor type 2 (Homo sapiens, UniProt P17706); test: PTP1B and TCPTP Inhibition Assay; conditions: pH 7.5; 22 °C
T1 sequence (P17706 whole entry): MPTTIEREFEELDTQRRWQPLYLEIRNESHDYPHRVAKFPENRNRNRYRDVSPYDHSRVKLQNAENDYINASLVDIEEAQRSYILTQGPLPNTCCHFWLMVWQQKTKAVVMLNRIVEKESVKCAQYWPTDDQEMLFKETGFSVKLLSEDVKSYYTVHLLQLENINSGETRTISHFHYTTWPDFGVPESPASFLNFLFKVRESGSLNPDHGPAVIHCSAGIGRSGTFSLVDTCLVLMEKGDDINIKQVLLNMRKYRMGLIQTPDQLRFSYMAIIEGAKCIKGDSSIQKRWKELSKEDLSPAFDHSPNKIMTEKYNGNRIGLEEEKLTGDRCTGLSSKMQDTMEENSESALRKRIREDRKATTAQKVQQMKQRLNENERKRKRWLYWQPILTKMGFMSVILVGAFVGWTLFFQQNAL
Description: (§1) For each concentration of test compound or DMSO control, the initial rates were used to fit the rectangular hyperbola of Michaelis-Menten by nonlinear regression analysis. The ratio of the apparent Km/Vmax vs inhibitor concentration was plotted, and the Ki was calculated by linear regression to be the negative X-intercept.

[2] = target: T2, Tyrosine-protein phosphatase non-receptor type 1 [1-298] (Homo sapiens, UniProt P18031); test: PTP1B and TCPTP Inhibition Assay; conditions: pH 7.5; 22 °C
T2 construct: 1-298
T2 sequence (P18031 whole entry): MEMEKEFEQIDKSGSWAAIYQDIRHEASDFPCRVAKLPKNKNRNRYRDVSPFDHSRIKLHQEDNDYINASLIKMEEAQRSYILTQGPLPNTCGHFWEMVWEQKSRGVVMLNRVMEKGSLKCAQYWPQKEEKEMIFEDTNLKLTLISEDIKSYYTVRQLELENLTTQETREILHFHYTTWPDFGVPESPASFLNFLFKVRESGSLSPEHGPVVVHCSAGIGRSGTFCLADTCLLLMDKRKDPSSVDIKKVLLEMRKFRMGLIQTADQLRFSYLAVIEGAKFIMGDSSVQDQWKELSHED
Description: as §1

| SMILES | Ki [1] [µM] | Ki [2] [µM] |
| --- | --- | --- |
| COC(=O)c1c(O)cccc1OC/C=C/c1cccc(-c2onc(C(=O)O)c2N)c1 [4-amino-5-{3-[(1E)-3-[3-hydroxy-2-(methoxycarbonyl)phenoxy]prop-1-en-1-yl]phenyl}-1,2-oxazole-3-carboxylic acid] | > 30 | – |
| COC(=O)c1c(O)cccc1OCC1CC1c1cccc(-c2cc(C(=O)O)no2)c1 (configuration not stated) [5-(3-{2-[3-hydroxy-2-(methoxycarbonyl)phenoxymethyl]cyclopropyl}phenyl)-1,2-oxazole-3-carboxylic acid] | – | 23 |
